In paper PMC8037910, “Effect of Chronic Administration of 5-(3-chlorophenyl)-4-Hexyl-2,4 -Dihydro-3H-1,2,4-Triazole-3-Thione (TP-315)—A New Anticonvulsant Drug Candidate—On Living Organisms” (International Journal of Molecular Sciences, 2021):

How the values were obtained:
Albino Swiss mice [1] = experiment: Histopathological examination of kidneys and liver after chronic administration; assay type: in vivo; details: 47.6 mg/kg i.p. for 14 days, H&E staining, vs control group
Protocol: (§1) The experiments were carried out on adult male Albino Swiss mice weighing 20 ± 5 g. […] The mice from the control group (8 mice) received 0.9% NaCl solution i.p. once daily for 14 days.
(§2) After completion of the experimental procedure (on the 15th day—24h after the last injection), the animals were decapitated. Their livers and kidneys were collected for histopathological examination, while blood was drawn for biochemical and morphological tests and for HPLC-FL determination of TP-315 in serum.
The kidneys and livers of mice from the control and experimental groups were subjected to histopathological evaluation. The organs were fixed in 10% buffered formalin at pH 7.2 and then fixed with increasing concentrations of alcohol solutions, acetone, and xylene in paraffin blocks using a tissue processor (Leica TP-20, Leica Biosystems, Wetzlar, Germany). 4 μm thick tissue sections cut with a sledge microtome (Leica SR-200, Leica Biosystems, Wetzlar, Germany) were transferred onto slides. The preparations for the histopathological samples were stained with hematoxylin and eosin and evaluated under a light microscope (Nikon Eclipse E-600, […]). Reagents were purchased from Sigma-Aldrich (St. Louis, MO, USA).

CYP3A4 = target: T1, CYP3A4 (Homo sapiens, UniProt P08684); experiment: Vivid CYP450 screening kit, CYP3A4; assay type: biochemical; details: 0.015 μg/mL, 20 min incubation, p > 0.05
T1 construct: purchased Thermo Fisher Scientific
Protocol: (§3) Possible inhibitory effect of TP-315 on the catalytic activity of human cytochrome CYP450 enzymes was tested using Vivid CYP450 screening kits (Thermo Fisher Scientific, Waltham, MA, USA) according to the manufacturer’s standard procedure (Vivid BOMCC substrate CYP2B6 blue, Vivid DBOMF substrate CYP3A4 green, Vivid DBOMF substrate CYP3A5 green, Vivid EOMCC substrate CYP2C19 blue, Vivid MOBFC substrate CYP2D6 cyan). The experiment was carried out in the endpoint test mode (reading after 20 min of incubation). The test compound was dissolved in DMSO (starting concentrations, 2.5× concentrated); to avoid the influence of the solvent on the enzyme activity, the results were compared with the solvent control. The influence of TP-315 on the activity of selected enzymes was tested at concentrations of 0.015, 0.1, 0.5, 1, 2.5, 5, and 10 μg/mL. The positive control compounds (inhibitors) were miconazole (for CYP2C19 and CYP2B6), quinidine (for CYP2D6), and ketoconazole (for CYP3A4 and CYP3A5). Inhibitor concentrations were selected according to the manufacturer’s recommendations to achieve ≥90% inhibition. All inhibitors were obtained from Sigma-Aldrich (St. Louis, MO, USA). The BioTek Synergy H1 reader (BioTek Instruments, Inc., USA) was used to read the fluorescence according to the manufacturer’s guidelines. The tests were performed in duplicate.

Albino Swiss mice [2] = experiment: Morphological blood parameters after chronic administration; assay type: in vivo; details: 47.6 mg/kg i.p. for 14 days
Protocol: as §1, §2
For the determination of biochemical parameters (ALT, AST, GGT, creatinine, urea), whole blood was collected in clotting activator tubes (Sarstadt, Nümbrecht, Germany). To obtain serum, blood tubes were centrifuged at 4200 RPM for 10 min. Biochemical determinations were performed on an ERBA XL 640 analyzer (ERBA Mannheim, Germany) according to the manufacturer’s standard procedure. Whole blood for the determination of morphological parameters was collected in ethylenediaminetetraacetic acid (EDTA) tubes (Sarstadt, Nümbrecht, Germany). Morphological parameters were determined on the MYTHIC 18 Cormay analyzer (Cormay, Lublin, Poland) according to the manufacturer’s standard procedure.

CYP2D6 = target: T2, CYP2D6 (Homo sapiens, UniProt P10635); experiment: Vivid CYP450 screening kit, CYP2D6; assay type: biochemical; details: 0.015 μg/mL, 20 min incubation, p > 0.05
T2 construct: purchased Thermo Fisher Scientific
Protocol: as §3

T1 sequence (P08684 whole entry): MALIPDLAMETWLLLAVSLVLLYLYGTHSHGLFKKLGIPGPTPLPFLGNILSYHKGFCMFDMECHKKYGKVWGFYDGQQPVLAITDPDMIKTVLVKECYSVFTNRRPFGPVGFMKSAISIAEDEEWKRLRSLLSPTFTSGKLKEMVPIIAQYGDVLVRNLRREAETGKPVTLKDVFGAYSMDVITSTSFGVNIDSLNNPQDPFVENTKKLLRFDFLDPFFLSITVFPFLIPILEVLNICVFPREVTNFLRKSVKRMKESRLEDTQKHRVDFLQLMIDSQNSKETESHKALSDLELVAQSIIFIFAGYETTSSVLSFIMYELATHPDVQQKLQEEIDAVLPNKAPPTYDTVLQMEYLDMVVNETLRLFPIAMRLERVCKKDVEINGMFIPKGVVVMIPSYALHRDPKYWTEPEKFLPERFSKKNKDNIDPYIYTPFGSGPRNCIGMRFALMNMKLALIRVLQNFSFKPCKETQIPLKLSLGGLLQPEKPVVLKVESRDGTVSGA
T2 sequence (P10635 whole entry): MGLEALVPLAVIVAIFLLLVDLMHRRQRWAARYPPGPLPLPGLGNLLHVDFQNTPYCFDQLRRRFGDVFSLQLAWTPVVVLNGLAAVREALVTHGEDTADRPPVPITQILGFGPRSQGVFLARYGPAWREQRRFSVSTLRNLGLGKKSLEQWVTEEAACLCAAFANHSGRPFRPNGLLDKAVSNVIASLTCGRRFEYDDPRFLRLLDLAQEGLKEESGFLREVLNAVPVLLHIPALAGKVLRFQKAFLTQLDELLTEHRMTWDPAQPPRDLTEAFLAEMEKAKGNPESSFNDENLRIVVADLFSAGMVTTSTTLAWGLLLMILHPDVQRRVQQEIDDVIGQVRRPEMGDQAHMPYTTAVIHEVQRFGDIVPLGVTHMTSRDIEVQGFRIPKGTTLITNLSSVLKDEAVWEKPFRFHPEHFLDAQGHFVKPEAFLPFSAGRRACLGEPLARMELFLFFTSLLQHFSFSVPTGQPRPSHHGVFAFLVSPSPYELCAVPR

## CCCCCCn1c(-c2cccc(Cl)c2)n[nH]c1=S [TP-315, 5-(3-Chlorophenyl)-4-hexyl-2,4-dihydro-3H-1,2,4-triazole-3-thione]
Albino Swiss mice [1]
  Histopathological examination of kidneys: no differences in the microscopic structure of kidneys
  Histopathological examination of liver: normal organ without pathological changes
CYP3A4
  Inhibition of CYP3A4 activity compared to the control: did not statistically significantly inhibit
Albino Swiss mice [2]; unpaired t-test p > 0.05
  Effect of chronic administration on hematological parameters vs control group: does not cause disturbances in the white blood cell and red cell systems
Albino Swiss mice [2]; examined group, mean ± SD
  BAS, basophils: 0.44 ± 0.19%
  EOS, eosinophile: 6.54 ± 2.05%
  HCT, hematocrit: 41.08 ± 3.65%
  HGB, hemoglobin concentration: 13.88 ± 1.28 g/dL
  LYM, lymphocytes: 65.7 ± 6.96%
  MCH, mean corpuscular hemoglobin: 16.62 ± 0.38 pg
  MCHC, mean corpuscular hemoglobin concentration: 33.84 ± 0.46 g/dL
  MCV, mean corpuscular volume: 49.1 ± 20.06 µm3
  MON, monocytes: 4.04 ± 1.17%
  MPV, mean platelet volume: 5.08 ± 0.25 µm3
  NEU, neutrophils: 23.28 ± 7.19%
  PCT, plateletcrit: 0.53 ± 0.16%
  PDW, platelet distribution width: 15.24 ± 0.17
  PLT, platelet: 1034.8 ± 268.44 10*3/µL
  RBC, red blood cells: 8.37 ± 0.84 10*6/μL
  RDW-CV, red blood cell distribution width: 13.46 ± 0.56%
  RDW-SD, red blood cell distribution width standard deviation: 28.46 ± 1.36 µm3
  WBC, white blood cells: 4.25 ± 1.2 10*3/µL
CYP2D6
  Inhibition of CYP2D6 activity compared to the control: did not statistically significantly inhibit
